From patent publication US20240300940A1, “Phenothiazinyl Compounds and Uses” (Prosetta Biosciences, Inc., priority 2023, published 2024)
pEC50: −log10 of the molar value.

Key:
Hennes-20 cells = assay: Hennes-20 oncology screen; assay type: cell-based; conditions: 72 h, alamar Blue
Experimental: To screen compounds for oncology activity Hennes-20 cells were plated at low (500 cells/well) versus high (15,000 cells/well) densities and treated with DMSO (vehicle) or dose-titration of compounds. The rationale for this screen is that an intrinsically toxic compound should kill cells regardless of density, including in Hennes-20 cells. However, a compound that selectively triggers the arrest of proliferation will inhibit cell growth when plated at a low density will appear cytotoxic due to inhibition of cell growth when plated at a low density but will appear non-toxic to cells plated at a high density where the cells are approaching confluence and the readout detected by a cell viability assay is already close to the maximum.
To conduct the Hennes-20 screen, two 96 well plates were seeded with Hennes 20 cells in parallel where one was plated at a density of 500 cells/well and the other was plated at a density of 15,000 cells/well. 90 uL of minimum essential media was added to each well and plates were placed in a 37 degrees Celsius incubator for 24 hours. The next day, 10 ul of media containing dilutions of compound in DMSO were added to each plate. Six wells on each plate received 10 ul of media containing only DMSO. Each well was gently mixed 5 times with a 100 ul pipette. Plates were incubated at 37 degrees Celsius for 72 hours and then 10 uL of alamar Blue was added to each well. Wells were mixed 5 times then incubated at 37 degrees Celsius for […]. Plates were then read at 530/590.
The rationale for the screen is as follows: Hennes-20 cells lack endogenous apoptosis. Cells plated at low density will proliferate and approach confluence in 72 hrs. A drug that arrests proliferation may have its proliferation blocking effect masked by the triggering of endogenous apoptosis. However, in the Hennes line, lacking endogenous apoptosis, such an arrest is manifest as a dose-dependent maintenance at low cell density. Since the high-density cells are plated close to confluence, the difference between Alamar Blue cell survival readings after 72 hrs reflects the ability of the drug to block proliferation in the low density-plated cells. In the high density-plated cells any diminution of Alamar Blue readout vs vehicle control is due to intrinsic toxicity, not proliferation arrest, since cells were already at confluence. Thus, a compound that appears toxic (low Alamar Blue readings after 72 hrs) on the low-density plate, but which appears non-toxic (high Alamar Blue readings after 72 hrs) on the high-density plate, must be arresting proliferation, since intrinsic compound toxicity should be observed at both low and high cell densities, not selectively on the low-density plate.

E. coli ATCC25922 = assay: MIC assay, serial dilution; conditions: for MIC: Escherichia coli, ATCC25922, read-out: Anti-bacterial Activity (E. coli MIC (uM)), E. coli, Table 5

Structure (SMILES) | pEC50 (Hennes-20 cells) | MIC (E. coli ATCC25922) [µM] | Anti-bacterial Activity (E. coli MIC (uM)) (E. coli ATCC25922; E. coli, Table 5) [µM]
CC(C)c1cc(N2CCCC2)cc2[s+]c3cc(N4CCCC4)ccc3nc12 [Compound 41] | > 6.30 | 1.6 | –
CC1(C)C2CN(c3ccc4nc5ccc(N6CCCCCC6)cc5[s+]c4c3)CC21 (stereo not shown) [Compound 30, 3-[6,6-dimethyl-3-azabicyclo[3.1.0]hexan-N-yl]-7-(azepan-1-yl) phenothiazinium iodide] | – | 0.8 | –
FC1CCN(c2ccc3nc4ccc(N5CCC(F)C5)cc4[s+]c3c2)C1 (stereo not shown) [Compound 54] | – | 25 | –
c1ccc2c(c1)Sc1ccccc1N2c1ccc2nc3c(N4CCCC4)cc(N4CCCC4)cc3[s+]c2c1 [Compound 19] | – | 12.5 | –
CC1C=CC(C)N1c1ccc2nc3ccc(N4C(C)C=CC4C)cc3[s+]c2c1 (stereo not shown) [Compound 61] | – | 25 | –
Cc1cc(N2CCCC2)cc2[s+]c3cc(N4CCCC4)cc(C)c3nc12 [Compound 40] | – | 1.6 | –
FC1(F)C2CN(c3ccc4nc5ccc(N6CC7C(C6)C7(F)F)cc5[s+]c4c3)CC21 (stereo not shown) [Compound 2] | – | 1.6 | –
CC(C)(C)OC(=O)NCC1CCCN1c1ccc2nc3ccc(N4CCCC4CNC(=O)OC(C)(C)C)cc3[s+]c2c1 (stereo not shown) [Compound 49] | > 5.60 | 1.6 | –
CC(C)(C)OC(=O)NC1CCN(c2ccc3nc4ccc(N5CCC(NC(=O)OC(C)(C)C)C5)cc4[s+]c3c2)C1 (stereo not shown) [Compound 51] | – | 6.3 | –
CN(C)c1ccc2nc3ccc(N4CC5C(C4)C5(C)C)cc3[s+]c2c1 (stereo not shown) [Compound 31] | > 5.60 | 1.6 | –
Cc1cc(N2CC3C(C2)C3(C)C)cc2[s+]c3c(F)c(N4CC5C(C4)C5(C)C)cc(C)c3nc12 (stereo not shown) [Compound 14] | > 6.30 | 6.25 | –
CC(C)(C)c1cc(N2CCOCC2)cc2[s+]c3cc(N4CCOCC4)ccc3nc12 [Compound 88] | 4.90 | – | –
CC(C)(C)c1cc(N2CCC(C(=N)N)CC2)cc2[s+]c3cc(N4CCC(C(=N)N)CC4)ccc3nc12 [Compound 90] | 4.90 | – | –
CCc1cc(N2CCCC2)cc2[s+]c3cc(N4CCCC4)cc(CC)c3nc12 [Compound 39] | – | 3.1 | –
CCc1cccc2[s+]c3cc(N4CCCC4)ccc3nc12 [Compound 37] | – | 6.3 | –
CC1(C)C2CN(c3ccc4nc5c(N6CCCC6)cc(N6CC7C(C6)C7(C)C)cc5[s+]c4c3)CC21 (stereo not shown) [Compound 4] | 6.30 | 3.1 | –
CN1CCN(c2ccc3nc4c(C(C)(C)C)cc(N5CCN(C)CC5)cc4[s+]c3c2)CC1 [Compound 85] | 4.90 | – | –
FC(F)(F)c1cc(N2CCCC2)cc2[s+]c3cc(N4CCCC4)ccc3nc12 [Compound 71] | > 5.60 | – | –
c1cc2nc3ccc(N4CC5CC5C4)cc3[s+]c2cc1N1CC2CC2C1 (stereo not shown) [Compound 3] | – | 1.6 | –
CC(C)(C)c1cc(N2CCCC2)cc2[s+]c3cc(N4CCC(C(=N)N)CC4)ccc3nc12 [Compound 89] | 4.90 | – | –
CC(C)(C)OC(=O)NCc1cc2nc3ccc(N4CCCC4)cc3[s+]c2cc1N1CCCC1 [Compound 24] | > 5.60 | 1.6 | –

Structure (SMILES) | pEC50 (Hennes-20 cells) | MIC (E. coli ATCC25922) [µM] | Anti-bacterial Activity (E. coli MIC (uM)) (E. coli ATCC25922; E. coli, Table 5) [µM]
Clc1cc(N2CCCC2)cc2[s+]c3cc(N4CCCC4)ccc3nc12 [Compound 86] | > 6.30 | – | –
CC(C)(C)OC(=O)NC1CCN(c2ccc3nc4ccc(N5CC6C(C5)C6(C)C)cc4[s+]c3c2)C1 (stereo not shown) [Compound 32] | – | 6.25 | –
CC1(C)CCCN1c1ccc2nc3ccc(N4CCCC4(C)C)cc3[s+]c2c1 [Compound 52] | – | 12.5 | –
c1cc2nc3ccc(N4CCC4)cc3[s+]c2cc1N1CCC1 [Compound 29] | > 5.60 | 25 | –
CCc1cc(N(CC)CC)cc2[s+]c3cc(N(CC)CC)cc(CC)c3nc12 [Compound 80] | > 5.60 | 25 | –
FC1(F)CCN(c2ccc3nc4ccc(N5CCC(F)(F)C5)cc4[s+]c3c2)C1 [Compound 53] | < 4.90 | 12.5 | –
CC1(C)C2CN(c3ccc4nc5c(N6CC7C(C6)C7(C)C)cc(N6CC7C(C6)C7(C)C)cc5[s+]c4c3)CC21 (stereo not shown) [Compound 6] | 6.30 | 6.3 | –
CC1(C)C2CN(c3ccc4nc5c(F)cc(N6CC7C(C6)C7(C)C)cc5[s+]c4c3)CC21 (stereo not shown) [Compound 5] | > 7.00 | 6.25 | –
CCc1cc(N2CC3C(C2)C3(C)C)cc2[s+]c3cc(N4CC5C(C4)C5(C)C)cc(CC)c3nc12 (stereo not shown) [Compound 10] | > 6.30 | 6.25 | –
CCc1cc(N2CCCC2)cc2[s+]c3cc(N4CCOCC4)cc(CC)c3nc12 [Compound 72] | > 4.90 | 25 | –
CC1(C)C2CN(c3cc(N4CCCC4)cc4[s+]c5cc(N6CCCC6)ccc5nc34)CC21 (stereo not shown) [Compound 23] | > 6.30 | 1.6 | –
CCc1cc(N2CCCC2)cc2[s+]c3cc(N4CCCC4)cc(C(C)C)c3nc12 [Compound 64] | – | – | 6.3
CC1(C)C2CN(c3cc(F)c4nc5c(F)cc(N6CC7C(C6)C7(C)C)cc5[s+]c4c3)CC21 (stereo not shown) [Compound 13] | 5.60 | 12.5 | –
c1cc2nc3ccc(N4CCCCCC4)cc3[s+]c2cc1N1CCCCCC1 [Compound 22] | > 6.30 | 1.6 | –
NCc1cc2nc3ccc(N4CCCC4)cc3[s+]c2cc1N1CCCC1 [Compound 27] | – | 12.5 | –
Fc1cc(N2CCCC2)cc2[s+]c3cc(N4CCCC4)cc(F)c3nc12 [Compound 44] | – | 6.3 | –
N#Cc1cc(N2CCCC2)cc2[s+]c3cc(N4CCCC4)cc(N4CCCC4)c3nc12 [Compound 78] | > 5.60 | – | –
CC(C)(C)c1cc(N2CCC(C(=N)N)CC2)cc2[s+]c3cc(N4CCCC4)ccc3nc12 [Compound 91] | < 4.90 | – | –
Cc1cc(N2CCCC2)cc2[s+]c3cc(N4CCCC4)ccc3nc12 [Compound 79] | > 4.90 | – | –
FC(F)(F)C1CCCN1c1ccc2nc3ccc(N4CCCC4C(F)(F)F)cc3[s+]c2c1 (stereo not shown) [Compound 48] | – | 3.1 | –
CCN(CC)c1cc(Br)c2nc3c(C(C)(C)C)cc(N(CC)CC)cc3[s+]c2c1 [Compound 63] | 5.60 | – | –

Structure (SMILES) | pEC50 (Hennes-20 cells) | MIC (E. coli ATCC25922) [µM] | Anti-bacterial Activity (E. coli MIC (uM)) (E. coli ATCC25922; E. coli, Table 5) [µM]
CCCCc1cc(N2CCCC2)cc2[s+]c3cc(N4CCCC4)ccc3nc12 [Compound 70] | > 5.60 | – | –
Cc1cc(N(C)C)cc2[s+]c3cc(N4CCCC4)cc(C)c3nc12 [Compound 33] | – | 1.6 | –
CC1(C)CCCN1c1ccc2nc3ccc(N4CCCCCC4)cc3[s+]c2c1 [Compound 28] | – | 12.5 | –
Cc1cc(N2CCCC2)cc2[s+]c3c(F)c(N4CCCC4)cc(C)c3nc12 [Compound 21] | > 6.30 | 1.6 | –
CCc1cc(N2CC3C(C2)C3(C)C)cc2[s+]c3cc(N4CC5C(C4)C5(C)C)cc(C)c3nc12 (stereo not shown) [Compound 12] | > 6.30 | 6.25 | –
Fc1cc(N2CCCC2)cc2[s+]c3cc(N4CCCC4)ccc3nc12 [Compound 43] | 6.30 | 3.1 | –
c1cc2nc3c(N4CCCC4)cc(N4CCCC4)cc3[s+]c2cc1N1CCCC1 [Compound 20] | 6.30 | 0.8 | –
FC(F)(F)c1cc(N2CCCC2)cc2[s+]c3cc(N4CCCC4)cc(N4CCCC4)c3nc12 [Compound 75] | > 5.60 | – | –
Clc1cc(N2CCCC2)cc2[s+]c3cc(N4CCCC4)cc(Cl)c3nc12 [Compound 42] | > 4.90 | 1.6 | –
CCc1cc(N(C)C)cc2[s+]c3cc(N4CCCN(C(=O)OC(C)(C)C)CC4)cc(CC)c3nc12 [Compound 74] | > 6.30 | 6.3 | –
CC1(C)C2CN(c3ccc4nc5cc(Cl)c(N6CC7C(C6)C7(C)C)cc5[s+]c4c3)CC21 (stereo not shown) [Compound 9] | 6.30 | 12.5 | –
c1cc2nc3ccc(N4CCC5(CCC5)C4)cc3[s+]c2cc1N1CCC2(CCC2)C1 [Compound 17] | – | 3.1 | –
CCc1cc(C(C)C)cc2[s+]c3cc(N(C)C)cc(CC)c3nc12 [Compound 60] | > 5.60 | – | –
c1cc(N2CCCC2)c2nc3ccc(N4CCCC4)cc3[s+]c2c1 [Compound 38] | 5.60 | 6.3 | –
c1ccc(C2CCN(c3ccc4nc5ccc(N6CCC(c7ccccc7)C6)cc5[s+]c4c3)C2)cc1 (stereo not shown) [Compound 47] | – | 3.1 | –
COc1cc2nc3ccc(N4CCCC4)cc3[s+]c2cc1N1CCCC1 [Compound 84] | > 4.90 | – | –
Cc1cc(N2CCOCC2)cc2[s+]c3cc(N4CCOCC4)cc(C)c3nc12 [Compound 93] | > 4.90 | 100 | –
COc1cc2nc3c(N4CCCC4)cc(N4CCCC4)cc3[s+]c2cc1N1CCCC1 [Compound 76] | > 5.60 | – | –
COCCN(CCOC)c1ccc2nc3c(C(C)(C)C)cc(N(CCOC)CCOC)cc3[s+]c2c1 [Compound 67] | > 6.30 | – | –
CC1(C)C2CN(c3ccc4nc5cc(CN)c(N6CC7C(C6)C7(C)C)cc5[s+]c4c3)CC21 (stereo not shown) [Compound 7] | – | 6.3 | –
CCc1cc(N2CCCNCC2)cc2[s+]c3cc(N4CCCC4C)cc(CC)c3nc12 (stereo not shown) [Compound 81] | > 5.60 | – | –
